Results published in ChEMBL document CHEMBL1926553, “Synthesis and antitumor activity of conjugates of 5-Fluorouracil and emodin” (Eur J Med Chem, 2012).

Tests used:
SGC-7901 [1] = test: Cytotoxicity against human SGC7901 cells after 2 days by alamar blue assay; format: functional, cell-based; conditions: SGC-7901, 48 h
[2] = Cytotoxicity against human HO8910 cells after 2 days by alamar blue assay; format: functional, cell-based; conditions: HO-8910, 48 h
HepG2 = test: Cytotoxicity against human HepG2 cells after 2 days by alamar blue assay; format: functional, cell-based; conditions: HepG2, 48 h
SGC-7901 [3] = test: Ratio of emodin IC50 to compound IC50 for human SGC7901 cells after 2 days by alamar blue assay; format: functional
HEK293 = test: Cytotoxicity against human HEK293 cells after 2 days by alamar blue assay; format: cell-based; conditions: HEK293, 48 h
[4] = Ratio of compound IC50 to emodin IC50 for human HEK293 cells after 2 days by alamar blue assay; format: ADME, cell-based; conditions: read-out: Ratio IC50
[5] = Ratio of compound IC50 to 5-Fluorouracil IC50 for human HEK293 cells after 2 days by alamar blue assay; format: ADME, cell-based; conditions: read-out: Ratio IC50

| Compound | IC50 (SGC-7901 [1]) | IC50 [2] | IC50 (HepG2) | Ratio IC50 (SGC-7901 [3]) | IC50 (HEK293; read-out: IC50) | selectivity ratio at 48 h [4] | IC50 (HEK293) | selectivity ratio at 48 h [5] |
| --- | --- | --- | --- | --- | --- | --- | --- | --- |
| CCCCn1c(=O)c(F)cn(Cc2c(C)cc3c(c2OC)C(=O)c2c(OC)cc(OC)cc2C3=O)c1=O | > 100 µM | > 100 µM | > 100 µM | – | – | – | – | – |
| COc1cc(OC)c2c(c1)C(=O)c1cc(C)c(Cn3cc(F)c(=O)n(Cc4ccccc4C#N)c3=O)c(OC)c1C2=O | 21.4 µM | 22.6 µM | 39.9 µM | 3 | 29.6 µM | 23 | – | – |
| O=c1[nH]cc(F)c(=O)[nH]1 [FLUOROURACIL] | 76 µM | 85.5 µM | 76.7 µM | – | – | – | 42.9 µM | – |
| COc1cc(OC)c2c(c1)C(=O)c1cc(C)c(Cn3cc(F)c(=O)n(Cc4ccccc4F)c3=O)c(OC)c1C2=O | 61 µM | 91.1 µM | > 100 µM | – | 66.6 µM | – | – | 1.5 |
| COc1cc(OC)c2c(c1)C(=O)c1cc(C)c(Cn3cc(F)c(=O)n(Cc4ccccc4)c3=O)c(OC)c1C2=O | 39.5 µM | 45.1 µM | > 100 µM | 1.5 | > 100 µM | – | – | – |
| COc1cc(OC)c2c(c1)C(=O)c1cc(C)c(Cn3cc(F)c(=O)[nH]c3=O)c(OC)c1C2=O | > 100 µM | > 100 µM | > 100 µM | – | > 100 µM | – | – | – |
| Cc1cc(O)c2c(c1)C(=O)c1cc(O)cc(O)c1C2=O [EMODIN] | 61.3 µM | 16 µM | 13.1 µM | – | 1.3 µM | – | – | – |
| CCn1c(=O)c(F)cn(Cc2c(C)cc3c(c2OC)C(=O)c2c(OC)cc(OC)cc2C3=O)c1=O | > 100 µM | > 100 µM | > 100 µM | – | – | – | – | – |
| COc1cc(OC)c2c(c1)C(=O)c1cc(C)c(Cn3cc(F)c(=O)n(C)c3=O)c(OC)c1C2=O | > 100 µM | > 100 µM | > 100 µM | – | – | – | – | – |
| COc1cc(OC)c2c(c1)C(=O)c1cc(C)c(Cn3cc(F)c(=O)n(CCc4ccccc4)c3=O)c(OC)c1C2=O | > 100 µM | 11.6 µM | 68.6 µM | – | 4.6 µM | – | – | – |
| C/C=C/Cn1c(=O)c(F)cn(Cc2c(C)cc3c(c2OC)C(=O)c2c(OC)cc(OC)cc2C3=O)c1=O | > 100 µM | > 100 µM | > 100 µM | – | – | – | – | – |
| COc1cc(OC)c2c(c1)C(=O)c1cc(C)c(Cn3cc(F)c(=O)n(Cc4cccc(F)c4)c3=O)c(OC)c1C2=O | > 100 µM | > 100 µM | > 100 µM | – | > 100 µM | – | – | – |
| COc1cc(OC)c2c(c1)C(=O)c1cc(C)c(Cn3cc(F)c(=O)n(Cc4ccc5c(c4)OCO5)c3=O)c(OC)c1C2=O | > 100 µM | > 100 µM | 91 µM | – | 30 µM | – | – | – |
| COc1cc(OC)c2c(c1)C(=O)c1cc(C)c(Cn3cc(F)c(=O)n(CC=C(C)C)c3=O)c(OC)c1C2=O | > 100 µM | > 100 µM | > 100 µM | – | – | – | – | – |
